In EP4725956A1, “MODIFIED POLYPEPTIDE AND USE THEREOF IN FIELD OF ANALGESIA” (Nanjing Anji Biotechnology Co., Ltd., priority 2023, dated 2024):
Positions of bridges follow the written chain, without caps; N, C: chain ends. Non-standard residues stand in square brackets, D forms with d. Residues, ends and D or L forms follow the SMILES beside them. Hyp = O=C(O)[C@@H]1C[C@@H](O)CN1; Nle = CCCC[C@H](N)C(=O)O; Orn = NCCC[C@H](N)C(=O)O

Columns and labels:
[1] = system: mouse oxaliplatin-induced acute chemotherapy pain model; assay: Mouse oxaliplatin chemotherapy pain model, different doses (Example 7); format: in vivo; settings: 2 mg/kg s.c. (AJ003; AJ003-36 medium dose)
Procedure: Oxaliplatin was dissolved in 5% glucose solution to a concentration of 1 mg/mL. For model induction, each male C57 mouse (Hangzhou Ziyuan Experimental Animal Technology Co., Ltd.) received a single intraperitoneal injection of oxaliplatin at 10 mg/kg. Mice in the negative control or blank control group received 5% glucose solution. Approximately one week after model induction, mechanical pain thresholds of the mice were measured three times per mouse, and the average value was calculated. Mice were then randomly assigned to groups based on their pain thresholds. Drug administration was carried out according to the dosing schedule shown in Table 6, with a single dose per mouse. Mechanical pain thresholds were measured at 0.5, 1, 2, 4, 6, and 8 h post-dose. […] Table 6 Dosing Scheme for Oxaliplatin Chemotherapy Pain Model

rat CCI model = assay: Rat CCI (chronic constriction injury) model (Example 9); format: in vivo; settings: 1 mg/kg s.c. (AJ003; AJ003-36 medium dose)
From the text: Neuropathic pain has many types, and animal models can simulate clinical neuropathic pain. Common SD rat sciatic nerve neuropathic pain models include CCI (Chronic Constriction Injury), SNI (Spared Nerve Injury), SNL (Spinal Nerve Ligation), and CCD (using stainless steel wire through the intervertebral foramen to fix and compress the dorsal root ganglion). Among them, the CCI model is widely used to study neuropathic pain, providing a basis for further research on mechanisms and strategies for nerve injury repair (Wen Xiaojun, Medical Information, Jan. 2018, Vol. 31, No.1). In this example, the CCI model was employed.
Except for the control group, the remaining SD rats were anesthetized via intraperitoneal injection of 10% chloral hydrate saline solution at a dose of 0.3 mL per 100 g body weight, and surgical modeling was performed. The right hind limb skin was carefully incised, muscles were separated, and the sciatic nerve was ligated three times using 4-0 surgical silk, spaced 1 mm apart. Muscles and skin were sutured, and antibiotics were applied to the wound to prevent infection. […] Approximately 10 days post-surgery, plantar pain thresholds were measured three times for each rat, and the average value was calculated. Rats were randomly assigned to groups based on pain thresholds. Drug administration was performed according to Table 8, and plantar pain thresholds were measured at 2 h, 4 h, 6 h, and 8 h after administration.

[2] = In vitro plasma stability and predicted half-life (HPLC main peak area, Example 3); format: in vitro ADME; settings: human plasma (EDTA anticoagulant), 37°C, sampled up to 24 h, predicted half-life calculated with Winolin
Procedure: The modified peptides in this study were designed with non-natural amino acid substitutions at certain non-essential positions to enhance peptide stability and improve druggability. Peptides were dissolved in deionized water to 2 mg/mL, then diluted with acetonitrile to 1 mg/mL and filtered through an organic membrane. 200 µL of the filtrate was transferred to an LC vial as the peptide control. 300 µL of human plasma (comprising EDTA as anticoagulant, Nanjing Senbeijia Biotechnology Co., Ltd., Lot No. SBJ-P-HU011-100 mL) was mixed with 300 µL acetonitrile, centrifuged at 4°C and 12,000 rpm for 5 minutes. The supernatant was filtered through an organic membrane, and 200 µL of the filtrate was transferred to an LC vial as the plasma blank control. For peptide samples, 10 mg of peptide was weighed mixed with 5 mL of human plasma and vortexed thoroughly. 300 µL of peptide-containing plasma was mixed with 300 µL acetonitrile, centrifuged at 4°C and 12,000 rpm for 5 minutes, and the supernatant was filtered through an organic membrane. 200 µL of the filtrate was transferred to an LC vial as the 0 min sample. Peptide-containing plasma was incubated in a 37°C water bath, and samples at other time points were collected using the same procedure as the 0 min sample. For peptides AJ003 and AJ003-1, the sampling time points were 0 min, 5 min, 10 min, 20 min, 30 min, 1 h, 2 h, 4 h, 6 h, 10 h, 12 h, and 24 h. For modified peptides AJ003-34, AJ003-35, AJ003-36, AJ003-37, AJ003-38, AJ003-39, AJ003-40, AJ003-41, and AJ003-42, the time points were 0 min, 10 min, 30 min, 1 h, 4 h, 6 h, 10 h, 12 h, and 24 h. All peptide sample series were analyzed by HPLC, recording the changes in main peak areas over plasma incubation time. Predicted in vitro half-lives were calculated using the pharmacokinetic software Winolin. Due to the presence of tautomers, AJ003 peak areas were difficult to integrate accurately over time. AJ003-1 is an analog of AJ003 in which the threonine at position 5 is substituted with D-threonine; its sequence differs from AJ003 by only one amino acid configuration. […] The in vitro plasma half-lives of modified peptides AJ003-34, AJ003-35, AJ003-36, AJ003-37, AJ003-38, AJ003-39, AJ003-40, AJ003-41, and AJ003-42 were 61.9 h, 45.3 h, 65.3 h, 71.0 h, 26.7 h, 43.0 h, 84.0 h, 30.0 h, and 61.4 h, respectively.

SMILES	analgesic activity compared with the model group (mechanical pain threshold) ([1]; single dose, 0.5, 1, 2 and 4 h post-dose)	analgesic activity compared with the model group (mechanical pain threshold) ([1]; single dose, 6 h post-dose)	analgesic activity compared with the model group (mechanical pain threshold) ([1]; single dose, 8 h post-dose)	analgesic activity compared with the model group (mechanical pain threshold) (rat CCI model; Day 1 of dosing, 2 h and 4 h)	analgesic activity compared with the model group (mechanical pain threshold) (rat CCI model; Day 1 of dosing, 6 h)	analgesic activity compared with the model group (mechanical pain threshold) (rat CCI model; Day 1 of dosing, 8 h)	analgesic activity compared with the model group (mechanical pain threshold) (rat CCI model; Day 4 of dosing, 2 h and 4 h)	analgesic activity compared with the model group (mechanical pain threshold) (rat CCI model; Day 4 of dosing, 6 h and 8 h)	analgesic activity compared with the model group (mechanical pain threshold) (rat CCI model; Day 7 of dosing, 2 h and 4 h)	analgesic activity compared with the model group (mechanical pain threshold) (rat CCI model; Day 7 of dosing, 6 h)	analgesic activity compared with the model group (mechanical pain threshold) (rat CCI model; Day 7 of dosing, 8 h)	analgesic activity compared with the model group (mechanical pain threshold) (rat CCI model; Day 10 of dosing, 2 h and 4 h)	analgesic activity compared with the model group (mechanical pain threshold) (rat CCI model; Day 10 of dosing, 6 h)	analgesic activity compared with the model group (mechanical pain threshold) (rat CCI model; Day 10 of dosing, 8 h)	analgesic activity compared with the model group (mechanical pain threshold) (rat CCI model; Day 14 of dosing, 2 h and 4 h)	analgesic activity compared with the model group (mechanical pain threshold) (rat CCI model; Day 14 of dosing, 6 h)	analgesic activity compared with the model group (mechanical pain threshold) (rat CCI model; Day 14 of dosing, 8 h)	half-life at 2 mg/mL [2]
CC(C)C[C@H](NC(=O)[C@@H](NC(=O)[C@H]1CSSC[C@H](NC(=O)[C@H](CO)NC(=O)CN)C(=O)N[C@@H](CO)C(=O)N[C@@H]([C@@H](C)O)C(=O)N2CCC[C@H]2C(=O)N2CCC[C@H]2C(=O)N[C@@H](CO)C(=O)N1)C(C)C)C(=O)N[C@@H](Cc1ccc(O)cc1)C(=O)N[C@@H](CO)C(=O)O [AJ003, GSCSTPPS-(D-Cys)-VLYS (disulfide bond between positions 3 and 9)] (H-GSCSTPPS[dC]VLYS-OH; disulfide 3-9)	significant analgesic activity	no significant effect	no significant effect	significant analgesic activity	no significant difference	not significantly different	significant analgesic activity	no longer significant	significant analgesic activity	no significant effect	not significant	significant analgesic activity	no significant effect	not significant	significant analgesic activity	no significant effect	not significant	
CCCC[C@H](NC(=O)[C@@H](NC(=O)[C@H]1CSSC[C@H](NC(=O)[C@H](CO)NC(=O)CN)C(=O)N[C@@H](CO)C(=O)N[C@H]([C@H](C)O)C(=O)N2C[C@H](O)C[C@H]2C(=O)N2C[C@H](O)C[C@H]2C(=O)N[C@@H](CO)C(=O)N1)C(C)C)C(=O)N[C@@H](Cc1c[nH]c2ccccc12)C(=O)N[C@@H](CCCN)C(N)=O [AJ003-40, GSCS-(D-Thr)-Hyp-Hyp-S-(D-Cys)-V-Nle-W-Orn-NH2 (3,9 disulfide bond)] (H-GSCS[dT][Hyp][Hyp]S[dC]V[Nle]W[Orn]-NH2; disulfide 3-9)																		84 h
